Source: US5399487A, “6-peptidylamino-1-naphthalenesulfonamides useful as fluorogenic proteolytic enzyme substrates” (Haematologic Technologies, Inc., priority 1993, dated 1995)

Experiments:
Assay type in all cases: biochemical
[1] = molecular target: factor IXa (Homo sapiens, UniProt P00740); experiment: Fluorogenic enzyme assay (Example 5); parameters: key to Kinetic constants, IXa (symbol b): slow substrate hydrolysis, no kinetic constants calculated; conditions: for hydrolysis, IXa (symbol d): at 100 hours, 100 nM enzyme, substrate 1 μM
Sequence of factor IXa (P00740 227-461 limits assumed): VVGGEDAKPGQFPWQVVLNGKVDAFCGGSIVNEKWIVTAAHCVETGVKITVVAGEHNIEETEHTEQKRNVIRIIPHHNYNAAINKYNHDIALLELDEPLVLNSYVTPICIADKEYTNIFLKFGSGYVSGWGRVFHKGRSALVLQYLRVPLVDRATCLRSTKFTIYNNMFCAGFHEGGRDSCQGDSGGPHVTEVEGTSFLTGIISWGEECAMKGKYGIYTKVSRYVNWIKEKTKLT
Sequence of factor IXa (P00740 47-191 limits assumed): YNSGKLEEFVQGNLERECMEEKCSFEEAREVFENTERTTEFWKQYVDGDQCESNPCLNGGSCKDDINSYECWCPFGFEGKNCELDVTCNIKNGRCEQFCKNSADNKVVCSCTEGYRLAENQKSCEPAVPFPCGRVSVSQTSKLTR
Protocol: (§1) Enzyme assays (except factor VIIa assays, see below) were conducted in 20 mM Tris, 150 mM NaCl, pH 7.4 (TBS) at room temperature (22° C.). The final volume for all reaction mixtures was 2.0 ml. Fluorogenic substrates were dissolved in DMSO to a stock concentration of 10 mM. The 10 mM stock solution was diluted in TBS to the final working concentration prior to all assays. Enzyme was added to mixtures containing buffer components and substrate and the initial rate of substrate hydrolysis was measured as the change in fluorescent intensity over time, corresponding to the generation of the particular 6-amino-1-naphthalenesulfonamide fluorophore from the provided substrate. Quantitation of substrate hydrolysis was accomplished by establishing a standard curve from the appropriate fluorescent moiety. Fluorescence was monitored (continuously or discontinuously) using a Perkin Elmer fluorescence spectrophotometer, model MPF-44A, equipped with a standard chart recorder. The fluorophore was detected using monochrometers set at an excitation wavelength of 352 nm and an emission wavelength of 470 nm. Light scattering artifacts were minimized using a 399 nm cut off filter in the emission light beam.
(§2) The kinetic constants of substrate hydrolysis were determined using the non-linear least squares regression analysis program ENZFITTER (Cambridge, UK). This program was used to iteratively fit initial rates of substrate hydrolysis to the Michaelis-Menten equation and the kinetic constants of substrate hydrolysis (Km) and (kcat) were calculated.

[2] = molecular target: factor Xa (Homo sapiens, UniProt P00742); experiment: Fluorogenic enzyme assay (Example 5); parameters: key to Kinetic constants, Xa (symbol b): slow substrate hydrolysis, no kinetic constants calculated; conditions: for TIME TO 10% HYDROLYSIS (HOURS), Xa: 100 nM enzyme (footnote b); for Km / kcat /Km, Xa / kcat, Xa: Table 7; for Time (min) for 10% hydrolysis, Xa: enzyme 100 nM
Sequence of factor Xa (P00742 235-488 limits assumed): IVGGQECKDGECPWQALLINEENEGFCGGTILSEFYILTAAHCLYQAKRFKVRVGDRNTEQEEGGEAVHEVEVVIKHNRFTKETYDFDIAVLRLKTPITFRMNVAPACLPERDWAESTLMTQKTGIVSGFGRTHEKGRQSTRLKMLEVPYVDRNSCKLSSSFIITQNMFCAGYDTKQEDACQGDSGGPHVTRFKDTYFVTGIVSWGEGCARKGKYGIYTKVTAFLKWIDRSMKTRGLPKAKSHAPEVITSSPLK
Sequence of factor Xa (P00742 41-179 limits assumed): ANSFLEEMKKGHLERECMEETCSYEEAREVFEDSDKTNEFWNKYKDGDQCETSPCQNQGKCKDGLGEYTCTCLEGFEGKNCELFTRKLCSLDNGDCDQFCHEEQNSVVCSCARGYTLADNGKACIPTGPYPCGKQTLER
Protocol: as §1, §2

[3] = molecular target: urokinase (u-PA) (Homo sapiens, UniProt P00749); experiment: Fluorogenic enzyme assay (Example 5); conditions: substrate 1 μM; for hydrolysis, u-PA (symbol d): at 100 hours; for hydrolysis, u-PA (symbol N.D.): after 24 hrs
Protocol: as §1, §2

[4] = molecular target: plasmin (Plm) (Homo sapiens, UniProt P00747); experiment: Fluorogenic enzyme assay (Example 5); conditions: substrate 1 μM; for TIME TO 10% HYDROLYSIS (HOURS), Plm: 100 nM enzyme (footnote b); for Time (min) for 10% hydrolysis, Plm / Time (min) for 5% hydrolysis, Plm: enzyme 100 nM; for Time (min) for 5% hydrolysis, Plm: footnote b
Sequence of plasmin (Plm) (P00747 581-810 limits assumed, species assumed): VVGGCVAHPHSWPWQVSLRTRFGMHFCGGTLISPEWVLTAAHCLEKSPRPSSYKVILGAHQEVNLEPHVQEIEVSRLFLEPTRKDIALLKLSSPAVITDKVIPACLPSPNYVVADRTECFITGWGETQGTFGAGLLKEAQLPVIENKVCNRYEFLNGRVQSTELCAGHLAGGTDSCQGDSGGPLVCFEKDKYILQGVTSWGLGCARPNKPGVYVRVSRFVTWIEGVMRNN
Sequence of plasmin (Plm) (P00747 97-580 limits assumed, species assumed): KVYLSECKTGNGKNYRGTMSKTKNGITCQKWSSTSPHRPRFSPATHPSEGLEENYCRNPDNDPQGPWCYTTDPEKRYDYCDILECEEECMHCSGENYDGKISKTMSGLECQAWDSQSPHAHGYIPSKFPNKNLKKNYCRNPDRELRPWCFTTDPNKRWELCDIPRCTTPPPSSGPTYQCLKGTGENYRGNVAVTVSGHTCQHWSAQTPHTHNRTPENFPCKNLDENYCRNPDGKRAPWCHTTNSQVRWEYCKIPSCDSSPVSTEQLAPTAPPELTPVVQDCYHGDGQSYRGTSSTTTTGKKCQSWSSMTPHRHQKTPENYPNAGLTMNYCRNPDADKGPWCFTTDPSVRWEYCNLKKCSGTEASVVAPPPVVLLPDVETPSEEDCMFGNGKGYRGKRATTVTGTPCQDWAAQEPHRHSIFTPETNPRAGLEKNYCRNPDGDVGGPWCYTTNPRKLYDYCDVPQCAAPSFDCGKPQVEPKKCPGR
Protocol: as §1, §2

[5] = molecular target: tissue plasminogen activator (t-PA) (Homo sapiens, UniProt P00750); experiment: Fluorogenic enzyme assay (Example 5); conditions: substrate 1 μM; for hydrolysis, t-PA (symbol d): at 100 hours, 100 nM enzyme; for hydrolysis, t-PA (symbol N.D.): after 24 hrs
Sequence of tissue plasminogen activator (t-PA) (P00750 36-562, species assumed): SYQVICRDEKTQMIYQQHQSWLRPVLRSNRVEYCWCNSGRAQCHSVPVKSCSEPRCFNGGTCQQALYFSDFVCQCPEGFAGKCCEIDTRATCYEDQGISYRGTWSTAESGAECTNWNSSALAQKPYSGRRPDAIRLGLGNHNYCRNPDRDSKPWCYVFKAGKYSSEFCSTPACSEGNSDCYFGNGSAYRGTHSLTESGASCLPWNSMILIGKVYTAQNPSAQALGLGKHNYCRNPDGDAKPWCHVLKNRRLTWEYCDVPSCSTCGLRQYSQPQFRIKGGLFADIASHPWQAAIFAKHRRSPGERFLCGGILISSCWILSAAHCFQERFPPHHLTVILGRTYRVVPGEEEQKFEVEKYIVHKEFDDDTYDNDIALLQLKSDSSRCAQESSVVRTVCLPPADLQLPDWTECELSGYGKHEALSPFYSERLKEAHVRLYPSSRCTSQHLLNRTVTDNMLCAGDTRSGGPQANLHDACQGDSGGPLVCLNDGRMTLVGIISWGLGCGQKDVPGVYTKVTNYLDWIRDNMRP
Protocol: as §1, §2

[6] = molecular target: T1, factor VIIa (Homo sapiens, UniProt P08709); experiment: Fluorogenic enzyme assay, relative hydrolysis rates (Table 8); conditions: at 100 hours; 10 nM enzyme, substrate 1 μM
T1 construct: directly measure the enzymatic activity of factor VIIa in the presence and absence of tissue factor and phospholipid
T1 sequence (P08709 213-466 limits assumed): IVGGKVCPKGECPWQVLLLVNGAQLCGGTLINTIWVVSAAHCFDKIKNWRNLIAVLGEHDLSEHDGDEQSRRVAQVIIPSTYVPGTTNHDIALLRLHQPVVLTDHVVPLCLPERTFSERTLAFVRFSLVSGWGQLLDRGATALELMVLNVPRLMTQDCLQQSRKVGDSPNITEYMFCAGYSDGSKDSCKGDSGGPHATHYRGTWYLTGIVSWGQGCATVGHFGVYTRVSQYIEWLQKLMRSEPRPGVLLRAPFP
T1 sequence (P08709 61-212 limits assumed): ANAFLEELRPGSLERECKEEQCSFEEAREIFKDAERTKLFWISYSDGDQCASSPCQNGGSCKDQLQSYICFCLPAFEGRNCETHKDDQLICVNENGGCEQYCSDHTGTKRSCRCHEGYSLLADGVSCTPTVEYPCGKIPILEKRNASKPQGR
Protocol: as §1
Factor VII assays were conducted in 20 mM HEPES, 150 mM NaCl, 5 mM CaCl2, pH 7.4 (HBS) at 37° C. The final volume for all reactions was 1.6 ml. 6-(Mes-D-Leu-Gly-Arg)amino-1-(N,N-diethyl)naphthalenesulfonamide was dissolved in DMSO to a stock concentration of 10 mM. This 10 mM stock solution of was diluted in HBS to final working concentration prior to all assays. For reactions involving tissue factor (TF) and phospholipid vesicles, recombinant human tissue factor was solubilized in either 0.04% n-dodecyl octaethylene glycol (C12 E8) or 0.8% octyl glucoside. The TF/n-dodecyl octaethylene glycol was then relipidated into PCPS or PC vesicles by a 30 minute incubation step as described by Lawson & Mann, J. Biol. Chem. 266: 11317-11327 (1991). TF/octyl glucoside was relipidated into PC or PCPS vesicles by a thirty minute incubation step followed by exhaustive dialysis. The final concentration of tissue factor used in the studies described here ranged from 2 to 50 nM depending on the nature of the experiment.
Fifteen minutes prior to the start of all reactions factor VIIa was added to the reaction system. This incubation period was followed by the addition of substrate (1 μM to 400 μM) to the mixture to start the reaction. In experiments designed to determine kinetic constants of substrate hydrolysis, 50 nM rVIIa was used when no tissue factor was present in the reaction system, while 0.5 nM rVIIa was used when tissue factor was present in the reaction system. The rate of substrate hydrolysis was measured by change in fluorescence over time, which corresponded with the generation of the 6-amino-1-(N,N-diethyl)naphthalenesulfonamide from the provided substrate. The kinetic constants of 6-(Mes-D-Leu-Gly-Arg)amino-1-(N,N-diethyl)naphthalenesulfonamide hydrolysis as a function of factor VIIa/tissue factor complex assembly are shown in Table 10.

[7] = molecular target: activated protein C (APC) (Homo sapiens, UniProt P04070); experiment: Fluorogenic enzyme assay (Example 5); parameters: key to Hydrolysis kinetic constants, APC (symbol b): Slow substrate hydrolysis, no kinetic constants calculated; conditions: for TIME TO 10% HYDROLYSIS (HOURS), APC / Time (min) for 10% hydrolysis, APC: substrate 1 μM; for Time (min) for 10% hydrolysis, APC: enzyme 100 nM
Sequence of activated protein C (APC) (P04070 212-461 limits assumed): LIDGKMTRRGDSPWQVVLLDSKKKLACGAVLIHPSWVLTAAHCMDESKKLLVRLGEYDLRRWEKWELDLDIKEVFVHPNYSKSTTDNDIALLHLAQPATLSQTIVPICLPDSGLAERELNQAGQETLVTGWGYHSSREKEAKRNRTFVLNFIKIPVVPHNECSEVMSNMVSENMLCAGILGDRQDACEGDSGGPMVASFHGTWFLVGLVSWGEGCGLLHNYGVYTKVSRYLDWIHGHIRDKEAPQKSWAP
Sequence of activated protein C (APC) (P04070 43-197 limits assumed): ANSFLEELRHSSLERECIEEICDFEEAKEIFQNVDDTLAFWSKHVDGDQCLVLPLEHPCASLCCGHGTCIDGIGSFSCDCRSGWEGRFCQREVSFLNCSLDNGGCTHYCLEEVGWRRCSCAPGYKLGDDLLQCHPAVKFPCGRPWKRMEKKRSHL
Protocol: as §1, §2

[8] = molecular target: T2, thrombin (IIa) (Homo sapiens, UniProt P00734); experiment: Fluorogenic enzyme assay (Example 5); parameters: key to Hydrolysis kinetic constants, IIa (symbol b): Slow substrate hydrolysis, no kinetic constants calculated; key to Kinetic constants, IIa (symbol b): slow substrate hydrolysis, no kinetic constants calculated; conditions: for Km / kcat /Km, IIa / kcat, IIa / Hydrolysis kinetic constants, IIa (symbol b): Table 7; for Time (min) for 10% hydrolysis, IIa: enzyme 100 nM
T2 construct: 0.5 nM human thrombin (IIa)
Protocol: as §1, §2

[9] = at 100 hours, 10 nM enzyme, substrate 1 μM

Row | Compound | hydrolysis, IXa (symbol d) [1] | TIME TO 10% HYDROLYSIS (HOURS), Plm [4] [h] | hydrolysis, t-PA (symbol d) [5] | hydrolysis, VIIa (symbol d) [6] | Km [2] [µM] | kcat /Km, Xa [2] [M⁻¹ s⁻¹] | kcat, Xa [2] [s⁻¹] | Time (min) for 10% hydrolysis, Xa ([2]; substrate 1 μM) [min] | Time (min) for 10% hydrolysis, APC [7] [min] | Km [8] [µM] | kcat /Km, IIa [8] [M⁻¹ s⁻¹] | kcat, IIa [8] [s⁻¹] | Time (min) for 10% hydrolysis, IIa ([8]; substrate 1 μM) [min] | Time (min) for 5% hydrolysis, Plm [4] [min] | hydrolysis, t-PA (symbol N.D.) ([5]; enzyme 100 nM) | Hydrolysis kinetic constants, APC (symbol b) ([7]; Table 7) | other results
1 | CN(C)S(=O)(=O)c1cccc2cc(NC(=O)[C@H](CCCNC(=N)N)NC(=O)[C@H](CCCCNC(=O)OCc3ccccc3)NC(=O)OC(C)(C)C)ccc12 [(N^α -Boc,N^.cndot. -Z)KR-ANSN(CH23)2] | d (hydrolysis at 100 hours was less than 10%.) | 1.5 | d (hydrolysis at 100 hours was less than 10%.) | d (hydrolysis at 100 hours was less than 10%.) | – | – | – | – | – | – | – | – | – | – | – | – | TIME TO 10% HYDROLYSIS (HOURS), Xa ([2]; substrate 1 μM): 24 h; hydrolysis, u-PA (symbol d) ([3]; 100 nM enzyme): d (hydrolysis at 100 hours was less than 10%.); TIME TO 10% HYDROLYSIS (HOURS), APC ([7]; 100 nM enzyme (footnote b)): 11 h; TIME TO 10% HYDROLYSIS (HOURS), IIa ([8]; 10 nM enzyme, substrate 1 μM): 18 h
2 | Br.N=C(N)NCCC[C@H](NC(=O)OCc1ccccc1)C(=O)Nc1ccc2c(S(=O)(=O)NCc3ccccc3)cccc2c1 [(N^α -Z)ArgANSNR1 R2; H; benzyl] | – | – | – | – | 213 | 198 | 0.04 | 46 | 12 | 41 | 1680 | 0.07 | 17 | – | – | – | Time (min) for 10% hydrolysis, u-PA ([3]; enzyme 100 nM): 19 min; Time (min) for 10% hydrolysis, Plm [4]: 330 min; Time (min) for 10% hydrolysis, t-PA ([5]; enzyme 100 nM): 510 min; Km ([7]; Table 7): 218 µM; kcat /Km, APC ([7]; Table 7): 1050 M⁻¹ s⁻¹; kcat, APC ([7]; Table 7): 0.23 s⁻¹
3 | Br.Br.Br.N=C(N)NCCC[C@H](NC(=O)CNC(=O)CN)C(=O)N[C@@H](CCCNC(=N)N)C(=O)Nc1ccc2c(S(=O)(=O)NC3CCCCC3)cccc2c1 [GGRR-ANSNH(cyclo-C6 H11)] | d (hydrolysis at 100 hours was less than 10%.) | 2.5 | d (hydrolysis at 100 hours was less than 10%.) | d (hydrolysis at 100 hours was less than 10%.) | – | – | – | – | – | – | – | – | – | – | – | – | Kinetic constants, IXa (symbol b) ([1]; Table 9): b; TIME TO 10% HYDROLYSIS (HOURS), Xa ([2]; substrate 1 μM): 46 h; Kinetic constants, Xa (symbol b) ([2]; Table 9): b; TIME TO 10% HYDROLYSIS (HOURS), u-PA ([3]; 100 nM enzyme): 24 h; TIME TO 10% HYDROLYSIS (HOURS), APC ([7]; 10 nM enzyme): 0.5 h; Km ([7]; Table 9): 267 µM; kcat /Km, APC ([7]; Table 9): 11600 M⁻¹ s⁻¹; kcat, APC ([7]; Table 9): 3.1 s⁻¹; TIME TO 10% HYDROLYSIS (HOURS), IIa ([8]; 10 nM enzyme, substrate 1 μM): 93 h; Kinetic constants, IIa (symbol b) ([8]; Table 9): b
4 | Br.Br.Br.CN(C)S(=O)(=O)c1cccc2cc(NC(=O)[C@H](CCCNC(=N)N)NC(=O)[C@@H](N)CCCCN)ccc12 [KR-ANSN(CH3)2] | d (hydrolysis at 100 hours was less than 10%.) | 8 | d (hydrolysis at 100 hours was less than 10%.) | d (hydrolysis at 100 hours was less than 10%.) | – | – | – | – | – | – | – | – | – | – | – | – | hydrolysis, Xa (symbol d) [2, 9]: d (hydrolysis at 100 hours was less than 10%.); hydrolysis, u-PA (symbol d) ([3]; 100 nM enzyme): d (hydrolysis at 100 hours was less than 10%.); TIME TO 10% HYDROLYSIS (HOURS), APC ([7]; 100 nM enzyme (footnote b)): 8 h; hydrolysis, IIa (symbol d) [8, 9]: d (hydrolysis at 100 hours was less than 10%.)
5 | Br.N=C(N)NCCC[C@H](NC(=O)OCc1ccccc1)C(=O)Nc1ccc2c(S(=O)(=O)N3CCCCCC3)cccc2c1 [(N^α -Z)ArgANSNR1 R2; (CH2)6] | – | – | – | – | 427 | 293 | 0.13 | 20 | 813 | – | – | – | 90 | 770 | N.D. (Less than 5% hydrolysis after 24 hrs.) | b | hydrolysis, u-PA (symbol N.D.) ([3]; enzyme 100 nM): N.D. (Less than 5% hydrolysis after 24 hrs.); Hydrolysis kinetic constants, IIa (symbol b) [8]: b
6 | Br.N=C(N)NCCC[C@H](NC(=O)OCc1ccccc1)C(=O)Nc1ccc2c(S(=O)(=O)N3CCOCC3)cccc2c1 [(N^α -Z)ArgANSNR1 R2; morpholyl] | – | – | – | – | 80 | 625 | 0.05 | 45 | 171 | – | – | – | 76 | 1220 | N.D. (Less than 5% hydrolysis after 24 hrs.) | b | hydrolysis, u-PA (symbol N.D.) ([3]; enzyme 100 nM): N.D. (Less than 5% hydrolysis after 24 hrs.); Hydrolysis kinetic constants, IIa (symbol b) [8]: b
7 | Br.N=C(N)NCCC[C@H](NC(=O)OCc1ccccc1)C(=O)Nc1ccc2c(S(=O)(=O)NC3CCCCC3)cccc2c1 [(N^α -Z)ArgANSNR1 R2; H; cyclo-C6 H11] | – | – | – | – | 51.8 | 633 | 0.03 | 55 | 12 | 27.9 | 1090 | 0.03 | 23 | – | N.D. (Less than 5% hydrolysis after 24 hrs.) | – | Time (min) for 5% hydrolysis, u-PA ([3]; footnote b, enzyme 100 nM): 1620 min; Time (min) for 10% hydrolysis, Plm [4]: 1140 min; Km ([7]; Table 7): 810 µM; kcat /Km, APC ([7]; Table 7): 2470 M⁻¹ s⁻¹; kcat, APC ([7]; Table 7): 0.44 s⁻¹
8 | Br.CNS(=O)(=O)c1cccc2cc(NC(=O)[C@H](CCCNC(=N)N)NC(=O)OCc3ccccc3)ccc12 [(N^α -Z)ArgANSNR1 R2; H; CH3] | – | – | – | – | 160 | 714 | 0.11 | 25 | 120 | 62.5 | 640 | 0.04 | 38 | 1620 | – | b | Time (min) for 10% hydrolysis, u-PA ([3]; enzyme 100 nM): 660 min; Time (min) for 5% hydrolysis, t-PA ([5]; footnote b, enzyme 100 nM): 1280 min
